Laboratory results taken from patent US6019959A, “Oligomeric compounds that contain perfluoroalkyl, process for their production, and their use in NMR diagnosis” (Schering Aktiengesellschaft, priority 1998, dated 2000).

Columns and labels:
[1] = Determination of the T1-relaxivity with a Minispec pc 20 in human plasma; assay type: physicochemical; details: 0.47 T (20 MHz), 37° C., human plasma, normalized to one metal atom
Procedure: Determination of the T^1 -Relaxivity of Selected Compounds
The relaxivity of the following compounds was determined
with a Minispec pc 20 (20 MHz, 0.47 T) at 37° C. in human plasma
and compared to that of Gd-DTPA-polylysine and Magnevist^(R) as
comparison substances. Since the substances according to the
invention contain more than one metal atom, the relaxivity was
normalized to one metal atom for purposes of comparison.

[2] = T1-relaxivity of commercially available 1H-NMR contrast media; assay type: physicochemical; details: 39° C., 0.47 T
[3] = In-vivo comparison with an intravascular and an extracellular contrast medium in blocked kidneys (diffusibility); parameters: species or system rats; details: i.v., blocked renal vessels, compound 2 set at 100%
Procedure: As test animals, three 250 g male (Schering-SPF) rats were used. The renal vessels in the animals were blocked to prevent renal elimination and, assuming that fecal elimination is negligible, to obtain a measure of the diffusibility of the formulation according to the invention from the blood into the surrounding tissue. 0.5 ml (in each case 10 mmol/l) of the following contrast medium solution was intravenously administered per animal: a mixture consisting of 1 part each of the compound of Example 1g, named compound 1 below, of intravascular contrast medium Eu-DTPA-albumin, named compound 2 below and of extracellular contrast medium Dy-DTPA, named compound 3 below. Via a catheter in the common carotid artery, blood samples were taken at the following times: 15, 30, 45, 60, 90 seconds; 3, 5, 10, 15 minutes p.i. In the blood samples that were obtained, in each case the concentrations of gadolinium (Gd), europium (Eu) and dysprosium (Dy) were measured in parallel using atom emission spectrometry (ICP-AES). The proportion of the intravascular contrast medium compound 2 (Eu) that remains in the blood space was set at 100%. It was possible to compare the proportion of the formulation according to the invention of compound 1 (Gd) and compound 3 (Dy, extracellular comparison substance) that remained in the blood space by the different labeling in the same animal, and the proportion was set as a percentage of the concentration of compound 2.

[4] = Blood elimination kinetics after one-time intravenous administration; assay type: in vivo, rats; details: two-compartment model, n=3
Procedure: For this purpose, after one-time intravenous administration (via a caudal vein) of the substances (dose: ≈100 μmol of metal per kg of body weight), the substance concentration in the blood (based on the Gd or Dy content) was determined over a period of up to 120 minutes p.i. using ICP-AES. The pharmacokinetic parameters: distribution volume (Vss), total clearance (CLtot) and elimination half-life (tb) were calculated with a special computer program (TOPFIT 2.0; Thomae, Schering, Godecke), whereby a two-compartment distribution model was used as a basis.
The Gd and Dy contents in the blood were determined using ICP-AES.
For this purpose, after one-time intravenous administration (via a caudal vein) of the substances (dose: ≈100 μmol of metal per kg of body weight), the substance concentration in the blood (based on the metal content) was determined over a period of up to 120 minutes p.i. using ICP-AES. The pharmacokinetic parameters: distribution volume (Vss), total clearance (CLtot) and elimination half-life (tb) were calculated with a special computer program (TOPFIT 2.0; Thomae, Schering, Godecke), whereby a two-compartment distribution model was used as a basis.

[5] = Table 3, i.v. ≈100 μmol metal/kg
[6] = Table 4, i.v. ≈100 μmol metal/kg

1,4,7-Tris{1,4,7-tris-(N-carboxylatomethyl)-10-[N-(4,7-diaza-3,6,9-trioxo)-nonane-2,9-diyl]-1,4,7,10-tetraazacyclododecane, Gd complex-10-(N-22F,22F,22F,21F,21F,20F,20F,19F,19F,18F,18F,17F,17F,16F,16F,15F,15F-heptadecafluoro-12-oxa-docosanoyl)-1,4,7,10-tetraazacyclododecane [14e)]
R^1 (T^1-relaxivity) [1]: 19.3 L/mmol/s

1,4,7-Tris{N-3,3,6-tris(carboxylatomethyl)-6-[N-3-aza-2,5-dioxo-pentane-1,5-diyl]-3,6,9-triazaundecane-1,11-dioic acid, Gd complex, monosodium salt}-10-2H,2H,4H,4H,5H,5H-3-oxa-perfluoro-tridecanoyl)-1,4,7,10-tetraazacyclododecane [8b)]
R^1 (T^1-relaxivity) [1]: 20.6 L/mmol/s

1,4,7-Tris{N-3,9-bis(carboxylatomethyl)-6-[N-3-aza-2,5-dioxo-pentane-1,5-diyl]-3,6,9-triazaundecane-1-carboxylato-11-acid, Gd complex, sodium salt}-10-[N-acetyl-(2-amino-N-ethyl-N-perfluorooctylsulfonyl)]-1,4,7,10-tetraazacyclododecane [18d)]
R^1 (T^1-relaxivity) [1]: 23.0 L/mmol/s

1,4,7-Tris{N-[3,9-bis(N-carboxylatomethyl)]-6-[N-(3-aza-2,5-dioxo-pentane)-1,5-diyl]-3,6,9-triazaundecane-1-carboxylato-11-acid, Gd complex, monosodium salt}-10-N-{undecanoyl-<11-amino-N-[acetyl-(2-amino-N-ethyl-N-perfluorooctyl-sulfonyl)]>}-1,4,7,10-tetraazacyclododecane [25f)]
R^1 (T^1-relaxivity) [1]: 15.1 L/mmol/s

1,4,7-Tris{N-hexanoyl-2,6-bis<amino-N-acetyl-2-[3,9-bis(N-carboxylato-methyl)-6-yl-3,6,9-triazaundecane-1-carboxylato-11-acid, Gd complex, monosodium salt]>}-10-[N-acetyl-(2-amino-N-ethyl-N-perfluorooctylsulfonyl)]-1,4,7,10- tetraazacyclododecane [26d)]
R^1 (T^1-relaxivity) [1]: 13.0 L/mmol/s

1,4,7-Tris{N-hexanoyl-2,6-bis<amino-N-acetyl-2-[aminopropanoyl-(2-yl)]-[1,4,7-tris(N-carboxylatomethyl)-1,4,7,10-tetraazacyclododecan-10-yl, Gd complex]>}-10-[N-acetyl-(2-amino-N-ethyl-N-perfluorooctylsulfonyl)]-1,4,7,10-tetraazacyclododecane [Example 27]
R^1 (T^1-relaxivity) [1]: 16.1 L/mmol/s

C[NH2+]C[C@H](O)[C@@H](O)[C@H](O)[C@H](O)CO.O=C([O-])CN1CCN(CC(=O)[O-])CCN(CC(=O)[O-])CCN(CC(=O)[O-])CC1.[Gd+3] [Dotarem, meglumine salt of Gd-DOTA (Gadolinium(III)complex of 1,4,7,10-tetracarboxymethyl-1,4,7,10-tetraazacyclododecane)]
T^1-relaxivity [2]: 3.5 to 4.9 mM⁻¹ s⁻¹

C[NH2+]C[C@H](O)[C@@H](O)[C@H](O)[C@H](O)CO.C[NH2+]C[C@H](O)[C@@H](O)[C@H](O)[C@H](O)CO.O=C([O-])CN(CCN(CC(=O)[O-])CC(=O)[O-])CCN(CC(=O)[O-])CC(=O)[O-].[Gd+3] [Magnevist, di--N-methylglucamine salt of the Gd-DTPA complex, reference compound]
R^1 (T^1-relaxivity) [1]: 4.8 L/mmol/s
T^1-relaxivity [2]: 3.5 to 4.9 mM⁻¹ s⁻¹

CNC(=O)CN(CCN(CCN(CC(=O)[O-])CC(=O)NC)CC(=O)[O-])CC(=O)[O-].[Gd+3] [Omniscan]
T^1-relaxivity [2]: 3.5 to 4.9 mM⁻¹ s⁻¹

CC(O)CN1CCN(CC(=O)[O-])CCN(CC(=O)[O-])CCN(CC(=O)[O-])CC1.[Gd+3] (stereo not shown) [Pro Hance]
T^1-relaxivity [2]: 3.5 to 4.9 mM⁻¹ s⁻¹

Dy-DTPA [reference compound]
Percentage of the dose that remains in the blood space ([3]; 30 seconds p.i.): 48%
Percentage of the dose that remains in the blood space ([3]; 3 minutes p.i.): 25%
Percentage of the dose that remains in the blood space ([3]; 10 minutes p.i.): 21%
Distribution volume Vss (MEAN) [4, 5]: 0.17 Ukg
Elimination half-life tβ (MEAN) [4, 5]: 20.7 min
Total clearance CLtot (MEAN) [4, 5]: 6.75 mU (min*kg)
tα (MEAN) [4, 5]: 2.07 min
Distribution volume Vss (MEAN) [4, 6]: 0.17 Ukg
Elimination half-life tβ (MEAN) [4, 6]: 18.5 min
Total clearance CLtot (MEAN) [4, 6]: 6.90 mL·kg·min
tα (MEAN) [4, 6]: 1.48 min

Eu-DTPA-albumin [compound 2]
Percentage of the dose that remains in the blood space ([3]; 30 seconds p.i.): 100%
Percentage of the dose that remains in the blood space ([3]; 3 minutes p.i.): 100%
Percentage of the dose that remains in the blood space ([3]; 10 minutes p.i.): 100%
